Data: ChEMBL document CHEMBL5726766, “Sulfonamide compounds as voltage-gated sodium channel modulators” (2019)

Assay: Membrane potential dye assay: HEK-293 cells overexpressing the channel of interest were seeded in a 96-well plate at a density of 30000 cells/well and incubated at 37° C./5% CO2 for 48 hr. The assay was carried out using the Red Membrane Potential Dye (Molecular Devices) following the manufacturer's instructions. Briefly, the cells were incubated with 1× red membrane potential dye for 1.5 hour. The cells were then treated with various concentrations of the test compounds for 15-20 min followed by depolarization with 10-30 μM Veratridine. The fluorescence was read following excitation at 510-545 nm and emission at 565-625 nm in FLIPR. The “max-min” fluorescence values were used to calculate the % inhibition.
Conditions: HEK293
Work on `O=S(=O)(Nc1ccncn1)c1ccc2c(c1)OCC[C@@H]2c1ccc(C(F)(F)F)cc1-c1ccc(F)cc1` yielded an IC50 greater than 10 µM. `O=S(=O)(Nc1cccc(F)n1)c1ccc2c(c1)OCC[C@@H]2c1ccc(C(F)(F)F)cc1-n1ccnn1` showed an IC50 greater than 10 µM. `O=S(=O)(Nc1ncc(F)cn1)c1ccc2c(c1)OCC[C@@H]2c1ccc(C(F)(F)F)cc1-c1ccc(F)cc1` gave an IC50 greater than 10 µM. With `O=S(=O)(Nc1ncc(F)cn1)c1ccc2c(c1)OCC[C@@H]2c1ccc(C(F)(F)F)cc1-n1ccnn1` the IC50 was greater than 10 µM. For `O=S(=O)(Nc1ccncn1)c1ccc2c(c1)OCC[C@@H]2c1ccc(C(F)(F)F)cc1-n1ccnn1`, the IC50 was greater than 10 µM. With `O=S(=O)(Nc1ncc(F)cn1)c1ccc2c(c1)OCC[C@@H]2c1ccc(C(F)(F)F)cc1-c1ccc(F)nc1` the IC50 was greater than 10 µM. In the case of `Cn1nccc1-c1cc(C(F)(F)F)ccc1[C@H]1CCOc2cc(S(=O)(=O)Nc3cnccn3)ccc21`, the IC50 is reported as greater than 10 µM. Molecule `Cn1nccc1-c1cc(C(F)(F)F)ccc1[C@H]1CCOc2cc(S(=O)(=O)Nc3ccncn3)ccc21` has an IC50 greater than 10 µM. `O=S(=O)(Nc1ncccn1)c1ccc2c(c1)OCC[C@@H]2c1ccc(C(F)(F)F)cc1-n1ccnn1` gave an IC50 greater than 10 µM. `Cn1nccc1-c1cc(C(F)(F)F)ccc1[C@H]1CCOc2cc(S(=O)(=O)Nc3cccnc3F)ccc21` showed an IC50 greater than 10 µM. With `O=S(=O)(Nc1cccc(F)n1)c1ccc2c(c1)OCC[C@H]2c1ccc(C(F)(F)F)cc1-c1ccc(F)cc1` the IC50 was greater than 10 µM. `CCOc1ccc(-c2cc(C(F)(F)F)ccc2[C@H]2CCOc3cc(S(=O)(=O)Nc4ncc(F)cn4)ccc32)cn1` showed an IC50 greater than 10 µM. `O=S(=O)(Nc1ncccn1)c1ccc2c(c1)OCC[C@H]2c1ccc(C(F)(F)F)cc1-n1ccnn1` gave an IC50 greater than 10 µM. For `O=C1CCCN1c1cc(C(F)(F)F)ccc1[C@@H]1CCOc2cc(S(=O)(=O)Nc3ncc(F)cn3)ccc21`, the IC50 was greater than 10 µM. Work on `CC(C)Oc1cccc(NS(=O)(=O)c2ccc3c(c2)OCC[C@@H]3c2ccc(C(F)(F)F)cc2-c2ccnn2C)n1` yielded an IC50 greater than 10 µM. In the case of `O=S(=O)(Nc1ncccn1)c1ccc2c(c1)OCC[C@H]2c1ccc(C(F)(F)F)cc1N1CCOCC1`, the IC50 is reported as greater than 10 µM. In the case of `Cn1nccc1-c1cc(C(F)(F)F)ccc1[C@H]1CCOc2cc(S(=O)(=O)Nc3ncccc3F)ccc21`, the IC50 is reported as greater than 10 µM. `Cn1nccc1-c1cc(Cl)ccc1[C@@H]1CCOc2cc(S(=O)(=O)Nc3cccc(F)n3)ccc21` showed an IC50 greater than 10 µM. Molecule `Cc1ccnc(NS(=O)(=O)c2ccc3c(c2)OCC[C@H]3c2ccc(C(F)(F)F)cc2-c2ccnn2C)n1` has an IC50 greater than 10 µM. `O=S(=O)(Nc1cccc(F)n1)c1ccc2c(c1)OCC[C@H]2c1ccc(C(F)(F)F)cc1-n1ccnn1` showed an IC50 greater than 10 µM. `O=S(=O)(Nc1cccc(F)n1)c1ccc2c(c1)OCC[C@H]2c1ccc(C(F)(F)F)cc1-n1cccn1` gave an IC50 greater than 10 µM. `O=S(=O)(Nc1ncc(F)cn1)c1ccc2c(c1)OCC[C@H]2c1ccc(C(F)(F)F)cc1-c1ccc(F)cc1` showed an IC50 greater than 10 µM. In the case of `Cc1ccnc(NS(=O)(=O)c2ccc3c(c2)OCC[C@@H]3c2ccc(C(F)(F)F)cc2-c2ccnn2C)n1`, the IC50 is reported as greater than 10 µM. In the case of `Cn1nccc1-c1cc(Cl)ccc1[C@H]1CCOc2cc(S(=O)(=O)Nc3cccc(F)n3)ccc21`, the IC50 is reported as greater than 10 µM. Molecule `Cc1nc(-c2cc(C(F)(F)F)ccc2[C@@H]2CCOc3cc(S(=O)(=O)Nc4cccc(F)n4)ccc32)cs1` has an IC50 greater than 10 µM. Molecule `O=S(=O)(Nc1ccncn1)c1ccc2c(c1)OCC[C@H]2c1ccc(C(F)(F)F)cc1-n1ccnn1` has an IC50 greater than 10 µM. Molecule `O=S(=O)(Nc1ncc(F)cn1)c1ccc2c(c1)OCC[C@H]2c1ccc(C(F)(F)F)cc1-n1ccnn1` has an IC50 greater than 10 µM. With `CS(=O)(=O)CCc1cc(C(F)(F)F)ccc1[C@@H]1CCOc2cc(S(=O)(=O)Nc3ccncn3)ccc21` the IC50 was greater than 10 µM. With `Cc1nc(-c2cc(C(F)(F)F)ccc2[C@@H]2CCOc3cc(S(=O)(=O)Nc4cccnn4)ccc32)co1` the IC50 was greater than 10 µM. In the case of `CC(C)Oc1ccc([C@@H]2CCOc3cc(S(=O)(=O)Nc4cccc(F)n4)ccc32)c(-c2ccnn2C)c1`, the IC50 is reported as greater than 10 µM. Molecule `CS(=O)(=O)CCc1cc(C(F)(F)F)ccc1[C@H]1CCOc2cc(S(=O)(=O)Nc3ncccn3)ccc21` has an IC50 greater than 10 µM. `CC(C)Oc1ccc(-c2cc(C(F)(F)F)ccc2[C@H]2CCOc3cc(S(=O)(=O)Nc4ncc(F)cn4)ccc32)cn1` showed an IC50 greater than 10 µM. `O=S(=O)(Nc1ncccn1)c1ccc2c(c1)OCC[C@H]2c1ccc(C(F)(F)F)cc1C1CCOCC1` gave an IC50 greater than 10 µM. `Cc1nc(-c2cc(C(F)(F)F)ccc2[C@@H]2CCOc3cc(S(=O)(=O)Nc4ccncn4)ccc32)cs1` gave an IC50 greater than 10 µM. Work on `Cc1nc(-c2cc(C(F)(F)F)ccc2[C@H]2CCOc3cc(S(=O)(=O)Nc4cccnn4)ccc32)cs1` yielded an IC50 greater than 10 µM. Molecule `O=S(=O)(Nc1ncc(F)cn1)c1ccc2c(c1)OCC[C@H]2c1ccc(C(F)(F)F)cc1-c1ccc(F)nc1` has an IC50 greater than 10 µM. For `CS(=O)(=O)CCc1cc(C(F)(F)F)ccc1[C@H]1CCOc2cc(S(=O)(=O)Nc3cccc(F)n3)ccc21`, the IC50 was greater than 10 µM. For `COCCCc1cc(C(F)(F)F)ccc1[C@@H]1CCOc2cc(S(=O)(=O)Nc3ncccn3)ccc21`, the IC50 was greater than 10 µM. With `Cn1nccc1-c1cc(C(F)(F)F)ccc1[C@@H]1CCOc2cc(S(=O)(=O)Nc3cnccn3)ccc21` the IC50 was greater than 10 µM. Molecule `O=S(=O)(Nc1cccnn1)c1ccc2c(c1)OCC[C@@H]2c1ccc(C(F)(F)F)cc1-n1ccnn1` has an IC50 greater than 10 µM. `COCCCOc1cc(C(F)(F)F)ccc1[C@@H]1CCOc2cc(S(=O)(=O)Nc3ncccn3)ccc21` showed an IC50 greater than 10 µM. With `Cc1nc(-c2cc(C(F)(F)F)ccc2[C@@H]2CCOc3cc(S(=O)(=O)Nc4ncccn4)ccc32)cs1` the IC50 was greater than 10 µM. In the case of `Cc1nc(-c2cc(C(F)(F)F)ccc2[C@H]2CCOc3cc(S(=O)(=O)Nc4ncccn4)ccc32)cs1`, the IC50 is reported as greater than 10 µM. With `Cn1nccc1-c1cc(C(F)(F)F)ccc1[C@@H]1CCOc2cc(S(=O)(=O)Nc3cccnc3F)ccc21` the IC50 was greater than 10 µM. Work on `O=S(=O)(Nc1cccnn1)c1ccc2c(c1)OCC[C@H]2c1ccc(C(F)(F)F)cc1-c1ccc(F)nc1` yielded an IC50 greater than 10 µM. `CS(=O)(=O)CCc1cc(C(F)(F)F)ccc1[C@@H]1CCOc2cc(S(=O)(=O)Nc3ncc(F)cn3)ccc21` showed an IC50 greater than 10 µM. In the case of `CC(C)Oc1cccc(NS(=O)(=O)c2ccc3c(c2)OCC[C@H]3c2ccc(C(F)(F)F)cc2-c2ccnn2C)n1`, the IC50 is reported as greater than 10 µM. `Cn1nccc1-c1cc(C(F)(F)F)ccc1[C@@H]1CCOc2cc(S(=O)(=O)Nc3ncccc3F)ccc21` gave an IC50 greater than 10 µM. Molecule `O=S(=O)(Nc1ccncn1)c1ccc2c(c1)OCC[C@H]2c1ccc(C(F)(F)F)cc1-c1ccc(F)cc1` has an IC50 greater than 10 µM. Molecule `O=C1CCCN1c1cc(C(F)(F)F)ccc1[C@H]1CCOc2cc(S(=O)(=O)Nc3ncc(F)cn3)ccc21` has an IC50 greater than 10 µM. For `Cc1cccc(NS(=O)(=O)c2ccc3c(c2)OCC[C@H]3c2ccc(C(F)(F)F)cc2-c2ccnn2C)n1`, the IC50 was greater than 10 µM. Molecule `CS(=O)(=O)CCc1cc(C(F)(F)F)ccc1[C@@H]1CCOc2cc(S(=O)(=O)Nc3ncccn3)ccc21` has an IC50 greater than 10 µM. In the case of `CS(=O)(=O)CCc1cc(C(F)(F)F)ccc1[C@H]1CCOc2cc(S(=O)(=O)Nc3ncc(F)cn3)ccc21`, the IC50 is reported as greater than 10 µM. With `Cn1nccc1-c1cc(C(F)(F)F)ccc1[C@@H]1CCOc2cc(S(=O)(=O)Nc3cc(F)ccn3)ccc21` the IC50 was greater than 10 µM. `O=S(=O)(Nc1cccc(F)n1)c1ccc2c(c1)OCC[C@@H]2c1ccc(C(F)(F)F)cc1-n1cccn1` gave an IC50 greater than 10 µM. Work on `Cn1nccc1-c1cc(C(F)(F)F)ccc1[C@@H]1CCOc2cc(S(=O)(=O)Nc3ccncn3)ccc21` yielded an IC50 greater than 10 µM. With `CS(=O)(=O)CCc1cc(C(F)(F)F)ccc1[C@H]1CCOc2cc(S(=O)(=O)Nc3ccncn3)ccc21` the IC50 was greater than 10 µM. For `CC(C)Oc1ccc([C@H]2CCOc3cc(S(=O)(=O)Nc4cccc(F)n4)ccc32)c(-c2ccnn2C)c1`, the IC50 was greater than 10 µM.
